According to US10328051B2, “Proline or proline derivatives for the treatment of dementia” (priority 2014, dated 2019):

How the values were obtained:
[1] = Tissue distribution and pharmacokinetics of single dose of radiolabelled 3H-CHP in mice (Study IPSS C053); format: in vivo; details: for Tissues that accumulated particularly high CHP concentrations: single dose 3H-CHP; for AUC-1 in the stomach / Cmax in the stomach / Cmax in brain & pituitary gland / AUC-1 for remaining carcass as % of the totaled AUC-1 for all tissues & samples: single dose 50 μCi 3H-CHP
Excerpt: Example 1: Tissue Distribution and Pharmacokinetic Study with CHP Study “Clinical Study in Mice on the Tissue Distribution and Pharmacokinetics of Single Dose of the Radiolabelled ^3H-CHP-Study No.: IPSS C053”—(FIG. 1). This Study has been Designed and Performed According to this Invention
1. Determination of ^3H-CHP distribution in 25 tissues, remaining carcass and whole blood over time.
2. Determination of pharmacokinetic parameters of CHP.
3. Comparison of intravenous (IV), and oral routes of administration.
^3H-CHP Labelling • CHP was labelled on the 4-prime position using tritium. • The scintillation counting technique detects the tritium atom. • Therefore the counting technique detects CHP and some metabolites which incorporate the tritium. […] They were selected using inclusion and exclusion criteria, and were therefore highly standardised.
Dosing Regimen • 48 animals were each administered 50 μCi ^3H-CHP at the start of the experiment. This was termed time zero (00:00 hrs). • 27 mice were dosed via the intravenous (IV) route. • 21 mice were dosed via the oral route. • Six (6) animals were not administered with CHP. They form two control groups of 3 mice each.
Data Collection • 3 mice were sacrificed following the SOP for anesthesia and according to the following time intervals
Sample Collection • From each sacrificed mouse, the following samples were taken: • Whole BloodEyes & Harderian GlandsKidneys & Adrenal GlandsAortaLiverLungSpleenUrinary BladderBone & Bone MarrowCaecumSmall IntestineLarge IntestineLymph Nodes (Mesenteric) Muscle, PancreasBrain & Pituitary GlandBrown FatSubcutaneous FatHeartThymousBoth TestesProstateSkinStomachThyroidSalivary GlandsRemaining CarcassUrine (collected if possible: in practise this was rare)
The remaining carcass sample consisted of the rest after removal of whole blood and the other tissues. Any material cleaned from other tissues listed above was also included. The collected remainings were homogenised before analysis.

[2] = Tissue distribution, bioaccumulation and pharmacokinetics following multiple dose administration of 3H-CHP in mice (Study IPSS E015); format: in vivo; details: multiple dose administration
Excerpt: Example 2. A Study in Mice on the Tissue Distribution, Bioaccumulation and Pharmacokinetics in Tissues, Connective and BrainTissues Following Multiple Dose Administration of ^3H-CHP Study No. IPSS E015 (FIG. 2)
According to this invention the study has been designed and performed as follows:
From each mouse sacrificed, the following organs & tissues samples were taken:
Liver, kidney, pancreas, limbic system, spinal fluid, brain stem, cerebrum, cerebellum, cartilage, ligaments and tendons (dense or fibrous connective tissue), loose connective tissue, and reticular connective tissue (supports lymph nodes, bone marrow, and spleen)

[3] = Single ascending oral doses of CHP (Study 1001-68) and single IV dose (Study 0302-72): pharmacokinetics and safety in healthy volunteers; format: in vivo, human; details: healthy subjects
Excerpt: study title Safety, tolerability and pharmacokinetic profile of single ascending doses of oral cis-4-hydroxy-L-proline (CHP) in healthy volunteers Galmed study no. 1001-68-. Results FIGS. 3 and 4.
Study title: Single Dose Absolute Bioavailability (intravenous IV solution) and Safety Study of CHP in Healthy Volunteers-GALMED Study No: 0302-72. Results are in (FIGS. 5 and 6)
Six healthy volunteers (male, caucasian—18-45 years old) were recruited from the GCP-Galmed clinical centre. All healthy volunteers provided written informed consent prior to study participation. The study was approved by the independent Ethical Committee.
All volunteers were orally administered 2, 4, 6, 8, 10 and 12 grams of CHP with a wash out period of at least one week between doses of CHP.
The following blood and urine samples were collected for determination of the pharmacokinetics parameters of CHP and THP:
10 hours and immediately prior to administration of CHP (0 Hour), and at 0.25, 0.5, 1, 1.5, 2, 2.5, 3, 4, 5, 6, 12 and 24 hours after administration of CHP.
Urine was collected for the determination of the CHP and THP concentrations and the calculation of the elimination parameters of CHP and THP.
Six healthy volunteers (male, caucasian—18-45 years old) were recruited from the GCP-Galmed clinical centre. All healthy volunteers provided written informed consent prior to study participation. The study was approved by the independent Ethical Committee. Single doses of CHP were intravenously administered: 2.0 g, 4.0 g (2×2.0 g). Each dose level was administered to all healthy volunteers. There was a washout period of at least one week between doses.
The following safety parameters were determined at the pre- and post-study examinations: • 1. Vital signs • 2. Clinical laboratory: Blood chemistry, Haematology, Coagulation, Urinalysis • 3. Adverse events (Signs and Symptoms) have been recorded in each of the two treatment periods.

[4] = Multiple dose ascending bioavailability and safety study (Phase I) with oral CHP (Study 0202-71); format: in vivo, human
Protocol: Example 5—Study Title: Multiple Dose Ascending Bioavailability and Safety Study Phase 1 with Oral CHP-GALMED Study No: 0202-71
12 healthy Caucasian males were recruited (age: 18-45 years).
Multiple doses of CHP were orally administered: • 4×2.0 g CHP per day, for 14 consecutive days (total daily dose=8.0 g CHP) • 4×3.0 g CHP per day, for 14 consecutive days (total daily dose=12.0 g CHP) Each dose level was administered to all volunteers.
Objectives • To determine the pharmacokinetic parameters and safety of CHP and THP in plasma following oral administration of multiple doses of 8 g CHP (4×2 g) and 12 g CHP (4×3 g)—4× daily, τ=6 h, respectively, in 12 healthy subjects on Day 1 and Day 14. • To model and simulate plasma concentrations of CHP and THP during Days 1 to 14.

[5] = after oral administration of CHP 2 g-12 g
[6] = male, human, plasma, healthy subjects, oral 4×2.0 g CHP/day
[7] = oral CHP, administration 4× daily

Which results are given for O=C(O)C1C[C@H](O)CN1 (stereo partly shown) [^3H-CHP]?
Tissues that accumulated particularly high CHP concentrations ([1]; intravenous application): Pancreas, lymph nodes (mesenteric), kidneys & adrenal Glands, caecum, large intestine, small intestine, spleen, liver, urinary bladder; Tissues that accumulated particularly high CHP concentrations ([1]; oral application): Pancreas, stomach, kidneys & adrenal glands, small intestine, lymph nodes (mesenteric), spleen, caecum, bone & bone marrow, large intestine, and liver; AUC-1 in the stomach ([1]; IV): 10.493 DPM/mg; Cmax in the stomach ([1]; IV): 3.269 DPM/mg; Cmax in brain & pituitary gland ([1]; IV, control 4 DPM/mg): 876 DPM/mg; AUC-1 for remaining carcass as % of the totaled AUC-1 for all tissues & samples ([1]; intravenous (IV)): 73.3%; AUC-1 for remaining carcass as % of the totaled AUC-1 for all tissues & samples ([1]; oral): 61.8%; AUC-1 in the stomach ([1]; oral): 27.297 DPM/mg; Cmax in the stomach ([1]; oral): 7.361 DPM/mg; Cmax in brain & pituitary gland ([1]; oral, control 1 DPM/mg): 419 DPM/mg; Tissues with particular high levels of 3H-CHP accumulation [2]: kidneys and adrenal glands liver, pancreas loose connective tissue cartilage, reticular connective tissue, dense/fibrinous connective tissues

Which “Oral clearance (average)” value [3, 5] does the source give for O=C(O)[C@@H]1C[C@@H](O)CN1 [THP, trans-4-hydroxy-L-proline] here?
Its value is 798.42 mL/min.

And the “Volume of distribution (average)” value [3, 5]?
The value was 804.70 L.

What about the “Correlation of Cmax and AUC(0-∞) with dose” value ([3]; oral CHP doses 2 g-12 g) of the same compound?
Its value is “dose linearity”.

What about the MRT ([3]; male, human, blood, after oral administration of CHP 2 g-12 g, read-out: Mean residence time (MRT) (average)) of the same compound?
Its MRT is 23.2 h.

What about the half-life ([3]; male, human, in vivo, after oral administration of CHP 2 g-12 g, read-out: Elimination half life (average) (converted)) of the same compound?
The half-life was 14.8 h.

What about the Tmax ([3]; male, human, plasma, after oral administration of CHP 2 g-12 g) of the same compound?
Its Tmax is 4.92 h.

What about the Cmax [4, 6] of the same compound?
Its Cmax is 9560 ng/mL.

And the Tmax [4, 6]?
Its Tmax is 1.5 h.

What about the half-life [4, 6] of the same compound?
The half-life was 12.4 h.

What about the MRT inf ([4]; male, human, plasma, healthy subjects, oral 4×2.0 g CHP/day, read-out: MRT (0-inf)) of the same compound?
The MRT inf was 19.1 h.

And the “Accumulation following oral administration” value ([4]; multiple oral doses of CHP)?
Its value is “remarkable extent”.

What about the “Time after which a steady state was observed” value ([4]; multiple oral doses of CHP, 4× daily, simulation of plasma concentration-time curves) of the same compound?
The value was ~96 h.

And the “Css,min lower if 2.0 g of CHP was administered (versus 3.0 g)” value [4, 7]?
Its value is 24%.

And the “Increase of AUCss,t, Css,max and Css,ave when the dose was increased from 2.0 g up to 3.0 g” value [4, 7]?
The value was “approximately 50%”.
